Experimental data reported in patent US12071430B2 (The Johns Hopkins University, priority 2011, dated 2024).
Where two headings read alike, the source gives them in different places.

Legend:
[1] = biological target: T1, CYP3A4 (Homo sapiens, UniProt P08684); assay: CYP3A4 enzyme assay (Vivid CYP3A4 Green Screening Kit); format: in vitro ADME; details: for CYP3A4 Inhibition (compared to intracozanole at 1 um): % enzyme inhibition at 1 uM drug / % enzyme inhibition at 1 uM itraconazole; for CYP3A4 inhibition, in words: dose response or compared with itraconazole; for CYP3A4 inhibition at 1 μM, in words: initial screening at 1 μM
T1 construct: purchased ThermoFisher P2857; host or cells: baculosomes (insect-cell microsomes, own knowledge)
Description: And CYP3A4 inhibition was initially determined using a cell-free fluorescence-based assay at a final concentration of 1 μM (Table 2).
CYP3A4 enzyme assay. CYP3A4 enzyme activity was tested using Vivid™ CYP3A4 Green Screening Kit (ThermoFisher, #P2857) using the manufacturer's protocol. Briefly, CYP3A4 baculosomes and drugs were incubated 10 min at 37° C. Then Vivid® Substrates were added and the fluorescence (ex/em:485/520) were read every 1 min for 60 minute.

[2] = test system: HUVEC; assay: HUVEC proliferation, [3H]-thymidine incorporation assay; format: cell-based, human; details: for Proliferation (IC50/IC50 Itra): HUVEC IC50 relative to itraconazole; for IC50: [3H]-thymidine incorporation, unit inferred, values in μM, read-out: Proliferation IC50
Description: The inhibitory effects of the new analogs on HUVEC proliferation were measured using a [3H]-thymidine incorporation assay. The log P values, used as an indicator of lipophilicity, were calculated using ALOGPS2.1 software. Aqueous solubility is a key physiochemical property relevant for oral absorption. We determined the solubility of each analog in 0.001 N HCl (pH=3), which represents the acidic human gastric fluid.
HUVEC Culture and Proliferation Assays. HUVEC (Lonza) were grown in EGM-2 bullet kit media (Lonza) and used at passage eight or lower. The H thymidine incorporation assays were conducted as previously described. Briefly, cells were seeded on 96-well plate at a concentration of 2000 cells/well and allowed to settle overnight. Drugs were added to each well in triplicate. After 24 hours, cells were treated with 1 μCi of [3H] thymidine for 6 h. Then cells were harvested and transferred to filtermats. The scintillation were counted and IC50 were determined using Prism software (version 6.0).

T1 sequence (P08684 whole entry): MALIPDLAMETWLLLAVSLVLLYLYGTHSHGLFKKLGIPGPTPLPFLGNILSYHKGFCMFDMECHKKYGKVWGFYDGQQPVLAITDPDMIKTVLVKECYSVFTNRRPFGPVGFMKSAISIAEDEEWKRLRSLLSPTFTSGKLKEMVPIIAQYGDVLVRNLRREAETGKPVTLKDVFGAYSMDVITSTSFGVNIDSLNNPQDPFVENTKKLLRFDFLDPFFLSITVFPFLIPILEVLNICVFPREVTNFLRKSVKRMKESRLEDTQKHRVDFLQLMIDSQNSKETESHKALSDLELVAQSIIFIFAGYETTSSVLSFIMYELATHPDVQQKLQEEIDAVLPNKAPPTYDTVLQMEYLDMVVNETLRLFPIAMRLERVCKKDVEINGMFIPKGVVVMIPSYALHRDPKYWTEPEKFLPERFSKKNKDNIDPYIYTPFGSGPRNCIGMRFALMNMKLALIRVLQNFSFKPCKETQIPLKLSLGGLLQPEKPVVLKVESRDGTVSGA

SMILES | CYP3A4 Inhibition (compared to intracozanole at 1 um) [1] | HUVEC proliferation / anti-angiogenic potency compared to itraconazole, in words ([2]; HUVEC) | Proliferation (IC50/IC50 Itra) [2] | CYP3A4 inhibition, in words [1] | CYP3A4 inhibition at 1 μM, in words [1] | IC50 ([2]; Homo sapiens, HUVEC) | IC50 ([2]; HUVEC)
CCC(C)n1ncn(-c2ccc(N3CCN(c4ccc(OC[C@@H]5CO[C@@](Cn6ccnc6)(c6ccc(Cl)cc6Cl)O5)cc4)CC3)cc2)c1=O (stereo partly drawn) [Compound 33, 4-(4-(4-(4-(((2S,4R)-2-((1H-imidazol-1-yl)methyl)-2-(2,4-dichlorophenyl)-1,3-dioxolan-4-yl)methoxy)phenyl)piperazin-1-yl)phenyl)-1-sec-butyl-1H-1,2,4-triazol-5(4H)-one] | 1.18 | higher potency | 0.5 | – | – | – | –
CCC(C)n1ncn(-c2ccc(N3CCN(c4ccc(OC[C@@H]5CO[C@@](Cn6cccn6)(c6ccc(Cl)cc6Cl)O5)cc4)CC3)cc2)c1=O (stereo partly drawn) [Compound 34, 4-(4-(4-(4-(((2S,4R)-2-((1H-pyrazol-1-yl)methyl)-2-(2,4-dichlorophenyl)-1,3-dioxolan-4-yl)methoxy)phenyl)piperazin-1-yl)phenyl)-1-sec-butyl-1H-1,2,4-triazol-5(4H)-one] | No inhibition | – | 1.8 | – | – | – | –
CCC(C)n1ncn(-c2ccc(N3CCN(c4ccc(OC[C@@H]5CO[C@@](Cn6ccnc6C)(c6ccc(Cl)cc6Cl)O5)cc4)CC3)cc2)c1=O (stereo partly drawn) [Compound 35, 1-sec-butyl-4-(4-(4-(4-(((2S,4R)-2-(2,4-dichlorophenyl)-2-((2-methyl-1H-imidazol-1-yl)methyl)-1,3-dioxolan-4-yl)methoxy)phenyl)piperazin-1-yl)phenyl)-1H-1,2,4-triazol-5(4H)-one] | 0.85 | – | 1.0 | – | – | – | –
CCC(C)n1ncn(-c2ccc(N3CCN(c4ccc(OC[C@@H]5CO[C@@](Cn6cnc(C)c6)(c6ccc(Cl)cc6Cl)O5)cc4)CC3)cc2)c1=O (stereo partly drawn) [Compound 38, 1-sec-butyl-4-(4-(4-(4-(((2S,4R)-2-(2,4-dichlorophenyl)-2-((4-methyl-1H-imidazol-1-yl)methyl)-1,3-dioxolan-4-yl)methoxy)phenyl)piperazin-1-yl)phenyl)-1H-1,2,4-triazol-5(4H)-one] | 1.18 | – | 0.6 | – | – | – | –
CCC(C)n1ncn(-c2ccc(N3CCN(c4ccc(OC[C@@H]5CO[C@@](Cn6cc(C(F)(F)F)nc6C)(c6ccc(Cl)cc6Cl)O5)cc4)CC3)cc2)c1=O (stereo partly drawn) [Compound 39, 1-(sec-butyl)-4-(4-(4-(4-(((2S,4R)-2-(2,4-dichlorophenyl)-2-((2-methyl-4-(trifluoromethyl)-1H-imidazol-1-yl)methyl)-1,3-dioxolan-4-yl)methoxy)phenyl)piperazin-1-yl)phenyl)-1H-1,2,4-triazol-5(4H)-one] | No inhibition | – | 2.8 | eliminated CYP3A4 inhibition | eliminated | – | –
CCC(C)n1ncn(-c2ccc(N3CCN(c4ccc(OC[C@@H]5CO[C@@](Cn6cc(C)nc6C)(c6ccc(Cl)cc6Cl)O5)cc4)CC3)cc2)c1=O (stereo partly drawn) [Compound 40, 1-(sec-butyl)-4-(4-(4-(4-(((2S,4R)-2-(2,4-dichlorophenyl)-2-((2,4-dimethyl-1H-imidazol-1-yl)methyl)-1,3-dioxolan-4-yl)methoxy)phenyl)piperazin-1-yl)phenyl)-1H-1,2,4-triazol-5(4H)-one] | 0.45 | – | 3.1 | – | – | – | –
CCC(C)n1ncn(-c2ccc(N3CCN(c4ccc(OC[C@@H]5CO[C@@](Cn6c(C)cnc6C)(c6ccc(Cl)cc6Cl)O5)cc4)CC3)cc2)c1=O (stereo partly drawn) [Compound 41, 1-(sec-butyl)-4-(4-(4-(4-(((2S,4R)-2-(2,4-dichlorophenyl)-2-((2,5-dimethyl-1H-imidazol-1-yl)methyl)-1,3-dioxolan-4-yl)methoxy)phenyl)piperazin-1-yl)phenyl)-1H-1,2,4-triazol-5(4H)-one] | 0.27 | – | 4.5 | – | – | 0.765 µM | –
CCc1nccn1C[C@@]1(c2ccc(Cl)cc2Cl)OC[C@@H](COc2ccc(N3CCN(c4ccc(-n5cnn(C(C)CC)c5=O)cc4)CC3)cc2)O1 (stereo partly drawn) [Compound 43, 1-(sec-butyl)-4-(4-(4-(4-(((2S,4R)-2-(2,4-dichlorophenyl)-2-((2-ethyl-1H-imidazol-1-yl)methyl)-1,3-dioxolan-4-yl)methoxy)phenyl)piperazin-1-yl)phenyl)-1H-1,2,4-triazol-5(4H)-one] | 0.08 | – | 1.4 | – | – | – | –
CCC(C)n1ncn(-c2ccc(N3CCN(c4ccc(OC[C@@H]5CO[C@@](Cn6ccnc6C(C)C)(c6ccc(Cl)cc6Cl)O5)cc4)CC3)cc2)c1=O (stereo partly drawn) [Compound 45, 1-sec-butyl-4-(4-(4-(4-(((2S,4R)-2-(2,4-dichlorophenyl)-2-((2-isopropyl-1H-imidazol-1-yl)methyl)-1,3-dioxolan-4-yl)methoxy)phenyl)piperazin-1-yl)phenyl)-1H-1,2,4-triazol-5(4H)-one] | 0.07 | – | 0.5 | – | – | 0.084 µM | –
CCC(C)n1ncn(-c2ccc(N3CCN(c4ccc(OC[C@@H]5CO[C@@](Cn6ccnc6-c6ccccc6)(c6ccc(Cl)cc6Cl)O5)cc4)CC3)cc2)c1=O (stereo partly drawn) [Compound 46, 1-sec-butyl-4-(4-(4-(4-(((2S,4R)-2-(2,4-dichlorophenyl)-2-((2-phenyl-1H-imidazol-1-yl)methyl)-1,3-dioxolan-4-yl)methoxy)phenyl)piperazin-1-yl)phenyl)-1H-1,2,4-triazol-5(4H)-one] | 0.27 | – | 0.8 | – | – | – | –
CCC(C)n1ncn(-c2ccc(N3CCN(c4ccc(OC[C@@H]5CO[C@@](Cn6nc(C)nc6C)(c6ccc(Cl)cc6Cl)O5)cc4)CC3)cc2)c1=O (stereo partly drawn) [Compound 47, 1-sec-butyl-4-(4-(4-(4-(((2S,4R)-2-(2,4-dichlorophenyl)-2-((3,5-dimethyl-1H-1,2,4-triazol-1-yl)methyl)-1,3-dioxolan-4-yl)methoxy)phenyl)piperazin-1-yl)phenyl)-1H-1,2,4-triazol-5(4H)-one] | 0.32 | – | 1.3 | weak inhibition | no CYP3A4 inhibition | 0.22 µM | 0.221 µM
CCC(C)n1ncn(-c2ccc(N3CCN(c4ccc(OC[C@@H]5CO[C@@](Cn6ncnn6)(c6ccc(Cl)cc6Cl)O5)cc4)CC3)cc2)c1=O (stereo partly drawn) [Compound 49, 4-(4-(4-(4-(((2S,4R)-2-((2H-tetrazol-2-yl)methyl)-2-(2,4-dichlorophenyl)-1,3-dioxolan-4-yl)methoxy)phenyl)piperazin-1-yl)phenyl)-1-sec-butyl-1H-1,2,4-triazol-5(4H)-one] | 0.2 | – | 0.7 | – | – | 0.124 µM | –
CCC(C)n1ncn(-c2ccc(N3CCN(c4ccc(OC[C@@H]5CO[C@@](Cn6cnc(C)n6)(c6ccc(Cl)cc6Cl)O5)cc4)CC3)cc2)c1=O (stereo partly drawn) [Compound 50, 1-sec-butyl-4-(4-(4-(4-(((2S,4R)-2-(2,4-dichlorophenyl)-2-((3-methyl-1H-1,2,4-triazol-1-yl)methyl)-1,3-dioxolan-4-yl)methoxy)phenyl)piperazin-1-yl)phenyl)-1H-1,2,4-triazol-5(4H)-one] | 0.36 | – | 1.6 | reduced potency | – | – | –
